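48-hour exposure; five concentrations; linearly interpolated endpoints. GI50 is the concentration that inhibits growth by half.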 The source made the active and inactive calls. No stated cut-off is given here; in the data, active = GI50 up to about 1.1 µM and inactive = higher.
Key:
Assay in all cases: NCI tumour cell line growth inhibition, 48 h
RXF 631 = test system: RXF 631
XF498 = test system: XF498
DMS-273 = test system: DMS-273
DLD-1 = test system: DLD-1
DMS-114 = test system: DMS-114
LXFL 529 = test system: LXFL 529
SNB-78 = test system: SNB-78
BT-549 = test system: BT-549
HOP-18 = test system: HOP-18

O=CC1=CCCC2(C1)OCCO2
GI50 (RXF 631): > 100 µM (inactive)
GI50 (XF498): > 100 µM (inactive)
GI50 (DMS-273): > 100 µM (inactive)
GI50 (DLD-1): > 100 µM (inactive)
GI50 (DMS-114): > 100 µM (inactive)
GI50 (LXFL 529): > 100 µM (inactive)
GI50 (SNB-78): > 100 µM (inactive)

C/C(=C/C(=O)Nn1c(Cc2ccccc2)n[nH]c1=O)C(=O)O
GI50 (BT-549): > 100 µM (inactive)

COCN(CCC1=CCCCC1)C(=O)OC
GI50 (BT-549): > 100 µM (inactive)

O=CC1C(=O)Nc2nc3ccccc3n2C1c1ccccc1 (stereo not given)
GI50 (BT-549): 14.1 µM (inactive)

COc1cc(C2c3cc4c(cc3OC3(OC)COC(=O)C23)OCO4)cc(OC)c1OC (stereo not given)
GI50 (BT-549): 1.7 µM (inactive)

COc1cc2c(cc1OCCCCN1CCN(CCCCOc3cc4c(cc3OC)C(=O)N3CCC[C@H]3C=N4)CC1)N=C[C@@H]1CCCN1C2=O
GI50 (BT-549): 0.0202 µM (active)

COc1ccc(C(=O)N2CCN(c3ccc4[nH]c(=O)oc4c3)CC2)cc1
GI50 (BT-549): > 100 µM (inactive)

CC1(C)C(=O)N(O)C(C)(C)N1O
GI50 (BT-549): > 10 µM (inactive)

CC(C)(C)NCc1cc(C(C)(C)C)cc(-c2ccc(Cl)cc2)c1O
GI50 (BT-549): 13.7 µM (inactive)

O=Nc1c(-c2cccc([N+](=O)[O-])c2)nc2cnccn12
GI50 (BT-549): 27.9 µM (inactive)

CC1(C)N=C(c2ccccn2)C(c2ccccn2)=NC1(C)C
GI50 (RXF 631): > 100 µM (inactive)
GI50 (XF498): > 100 µM (inactive)
GI50 (DMS-273): > 100 µM (inactive)
GI50 (DLD-1): > 100 µM (inactive)
GI50 (DMS-114): > 100 µM (inactive)
GI50 (LXFL 529): > 100 µM (inactive)
GI50 (SNB-78): > 100 µM (inactive)

Cc1cccc(-c2nnc3s/c(=C\c4ccc5c(c4)OCO5)c(=O)n23)c1
GI50 (HOP-18): > 100 µM (inactive)
GI50 (XF498): > 100 µM (inactive)
GI50 (DMS-273): > 100 µM (inactive)
GI50 (DLD-1): > 100 µM (inactive)
GI50 (DMS-114): > 100 µM (inactive)
GI50 (LXFL 529): > 100 µM (inactive)
GI50 (SNB-78): > 100 µM (inactive)

CCOP(C)(=O)C(N)Cc1ccc(OC)c(OC)c1 (stereo not given)
GI50 (BT-549): > 100 µM (inactive)

COc1ccccc1NC(=O)CC(=O)N1N=C(c2ccccc2)C(/N=N/c2ccc(Cl)cc2)C1=O (stereo not given)
GI50 (RXF 631): 44.1 µM (inactive)
GI50 (XF498): 38.5 µM (inactive)
GI50 (DMS-273): 34.8 µM (inactive)
GI50 (DLD-1): 49.7 µM (inactive)
GI50 (DMS-114): 70.1 µM (inactive)
GI50 (LXFL 529): 47.6 µM (inactive)
GI50 (SNB-78): > 100 µM (inactive)

CNC(=O)Nc1cc2c3c(c1)CCCN3CCC2
GI50 (BT-549): > 10 µM (inactive)

Cc1ccc(SCC(OCn2cnc3c(N)ncnc32)[C@H](C)F)cc1 (stereo not given in full)
GI50 (BT-549): 40.9 µM (inactive)

CN1C(=O)C(C)(C)C2(SC(C)(C)C2(C)C)N(C)C1=S (stereo not given)
GI50 (HOP-18): > 100 µM (inactive)
GI50 (DMS-273): > 100 µM (inactive)
GI50 (DLD-1): > 100 µM (inactive)
GI50 (DMS-114): 67.3 µM (inactive)
GI50 (LXFL 529): > 100 µM (inactive)
GI50 (SNB-78): > 100 µM (inactive)

NC(=O)c1cccc(/N=c2\oc3ccc(Br)cc3cc2-c2nc3ccccc3[nH]2)c1
GI50 (BT-549): 13.6 µM (inactive)

O=C1CC(NCc2ccccc2)c2c(Cl)sc(Cl)c21 (stereo not given)
GI50 (BT-549): 31 µM (inactive)

O=c1n(CCO)nc2n1CCCN2
GI50 (BT-549): > 100 µM (inactive)

Cc1nc(O)nc2nc3ccc(Cl)cc3c(N(CCO)CCO)c12
GI50 (BT-549): > 100 µM (inactive)

CCOC(=O)c1ccc(-c2cc(C)[nH]n2)[nH]1
GI50 (BT-549): > 100 µM (inactive)

Cc1ccc(S(=O)(=O)N2C3C=CC(C3)[C@@H]2C(Cl)(Cl)Cl)cc1 (stereo not given in full)
GI50 (BT-549): 16.4 µM (inactive)

O=C(CC(=O)CC(O)(C(F)(F)F)C(F)(F)F)CC(O)(C(F)(F)F)C(F)(F)F
GI50 (BT-549): > 10 µM (inactive)

Cn1cnc([N+](=O)[O-])c1[Se]c1ncnc2nc[nH]c12
GI50 (BT-549): 14.6 µM (inactive)

[N-]=[N+]=C1C(=O)C2CC3CC1CC2C3 (stereo not given)
GI50 (HOP-18): > 100 µM (inactive)
GI50 (RXF 631): > 100 µM (inactive)
GI50 (DMS-273): > 100 µM (inactive)
GI50 (DLD-1): > 100 µM (inactive)
GI50 (DMS-114): > 100 µM (inactive)
GI50 (LXFL 529): > 100 µM (inactive)
GI50 (SNB-78): > 100 µM (inactive)

CC1=C(C(=O)Nc2ccccc2C)C(c2ccccc2)C(C(=O)Nc2ccccc2C)=C(C)N1
GI50 (HOP-18): 36.6 µM (inactive)
GI50 (XF498): 23.1 µM (inactive)
GI50 (DMS-273): 49.5 µM (inactive)
GI50 (DLD-1): 41 µM (inactive)
GI50 (DMS-114): 30.4 µM (inactive)
GI50 (LXFL 529): 30.5 µM (inactive)
GI50 (SNB-78): 32.9 µM (inactive)

COC(=O)[C@]12CCC(C)[C@H](C)[C@H]1C1=CCC3[C@@]4(C)CC[C@H](OC(C)=O)C(C)(C)C4CC[C@@]3(C)C1(C)C(O)C2 (stereo not given in full)
GI50 (HOP-18): > 100 µM (inactive)
GI50 (XF498): 27.9 µM (inactive)
GI50 (DMS-273): > 100 µM (inactive)
GI50 (DLD-1): > 100 µM (inactive)
GI50 (DMS-114): 61.7 µM (inactive)
GI50 (LXFL 529): 77.3 µM (inactive)
GI50 (SNB-78): > 100 µM (inactive)

Clc1cccc2[nH]ncc12
GI50 (BT-549): 36.1 µM (inactive)

COC(=O)c1cc(/C=C\c2cc(OC)ccc2OC)ccc1OC
GI50 (BT-549): 31.2 µM (inactive)

C/C(=N\Nc1nc2ccccc2o1)c1cc2ccccc2cn1
GI50 (BT-549): 0.173 µM (active)

COc1ccc(/C=C(/C(=O)O)c2cc(OC)c(OC)c(OC)c2)cc1
GI50 (RXF 631): 46.8 µM (inactive)
GI50 (DMS-273): 31.6 µM (inactive)
GI50 (DLD-1): 41.2 µM (inactive)
GI50 (DMS-114): 40.2 µM (inactive)
GI50 (LXFL 529): 69.2 µM (inactive)
GI50 (SNB-78): 35.8 µM (inactive)

C/C=C1/CN2[C@@H](C3=C[C@@H]4[C@@H]5N(C3=O)c3ccccc3[C@@]53CCN5C/C(=C/C)[C@@H]4C[C@H]53)C[C@@]34c5ccccc5N5C(=O)CC=C([C@H]1C[C@H]23)[C@H]54 [ISOSUNGUCINE]
GI50 (BT-549): 8.34 µM (inactive)
